What all share (type): functional, organism-based
For test [1], the system named is Escherichia coli. In words: Antibacterial activity against Escherichia coli 1850-WT strain at 16 ug/mL concentration; A - low activity was observed.
In test [2] the test system is Escherichia coli. In words: Antibacterial activity against Escherichia coli 1852-PM strain at 16 ug/mL concentration; A - low activity was observed.
For test [3], the system named is Escherichia coli. Kind of test: Antibacterial activity against Escherichia coli 1919-PM/TEM-1 strains at a concentration of at 16 ug/mL concentration; A - low activity was observed.
In test [4] the test system is Escherichia coli. In words: Antibacterial activity against Escherichia coli 851 at 16 ug/mL concentration; A - low activity was observed.
Test [5] relates to Pseudomonas aeruginosa. In words: Antibacterial activity against Pseudomonas aeruginosa at concentrations >32 ug/mL; inactive.
The subject of the next test is Streptococcus pneumoniae. Kind of test: Antibacterial activity against Streptococcus pneumoniae at a concentration of 2 ug/mL; A - weak activity was observed.
Test [6] relates to Staphylococcus aureus. Kind of test: Antibacterial activity against resistant strains of Staphylococcus aureus at 2-32 ug/mL concentration; A - weak activity was observed.
Test [7] deals with Staphylococcus aureus. In words: Antibacterial activity against sensitive strains of Staphylococcus aureus at 2-32 ug/mL concentration; A - weak activity was observed.
The subject of test [8] is Staphylococcus epidermidis. In words: Antibacterial activity against Staphylococcus epidermidis at 2 ug/mL concentration; A - weak activity was observed.
The test system of test [9] is Pseudomonas aeruginosa. In words: Tested for broad spectrum antibacterial activity against Pseudomonas aeruginosa; A - active compound.

Calls of active or inactive are those of the source. The calls are words filed in the database; no cut-off is given here.

As for `C[C@@H](O)[C@H]1C(=O)N2C(C(=O)O)=C3SCC[C@H]3[C@H]12`, the Activity result with Escherichia coli [1], with Escherichia coli [2], with Escherichia coli [3], in the test on Escherichia coli [4], with Streptococcus pneumoniae and with Staphylococcus aureus [6] was “Low activity” throughout. Besides, the Activity entry (with Staphylococcus aureus [7]; in test [8]) was “Low activity” in each case. In addition, the outcome with Pseudomonas aeruginosa [5] was inactive.
In the case of `C[C@@H](O)[C@H]1C(=O)N2C(C(=O)O)=C(S[C@@H]3CN[C@H](C(=O)N(C)C)C3)[C@H](C)[C@H]12`, in the test on Pseudomonas aeruginosa [9], the Activity result is on record as “Low activity”.
Still for that read-out and setting: for `C[C@@H](O)[C@H]1C(=O)N2C(C(=O)O)=C(SCCN)C[C@H]12` the value was “Low activity”.

Source of the values: ChEMBL document CHEMBL1128163, “Synthesis and biological evaluation of 4-heterotribactams” (Bioorg Med Chem Lett, 1995).
